From ChEMBL document CHEMBL5154675, “Design, Synthesis, and Biological Evaluation of 1-(Indolizin-3-yl)ethan-1-ones as CBP Bromodomain Inhibitors for the Treatment of Prostate Cancer” (J Med Chem, 2022)
In brackets after ≈: the same amount, converted by molar mass. Activity calls are given as the source filed them. No cut-off for these calls is given here.

Legend:
CREB-binding protein [1] = target: T1, CREB-binding protein (Homo sapiens, UniProt Q92793); assay: Inhibition of His6-tagged human CBP bromodomain (1081 to 1197 residues) expressed in Escherichia coli BL21 (DE3) incubated for 30 mins by HTRF assay
[2] = Cmax in Sprague-Dawley rat at 25 mg/kg, po measured up to 24 hrs; assay type: ADME, organism-based; set-up: dose 25 mg/kg, time < 24 hrs, route po; details: in vivo
[3] = Clearance in Sprague-Dawley rat at 5 mg/kg, iv administered as single dose measured up to 24 hrs; assay type: ADME, organism-based; details: in vivo, iv, 5 mg/kg, 24 h
[4] = Half life in Sprague-Dawley rat at 25 mg/kg, po measured up to 24 hrs; assay type: ADME, organism-based; details: in vivo
[5] = Half life in Sprague-Dawley rat at 5 mg/kg, iv administered as single dose measured up to 24 hrs; assay type: ADME, organism-based; details: Sprague-Dawley, in vivo
[6] = Oral bioavailability in Sprague-Dawley rat at 25 mg/kg measured up to 24 hrs; assay type: ADME, organism-based; details: in vivo
[7] = target: Bromodomain-containing protein 2 (Homo sapiens, UniProt P25440); assay: Binding affinity to His6-tagged human BRD2 bromodomain-1 (77 to 194 residues) expressed in Escherichia coli BL21 (DE3) assessed as dissociation constant by ITC analysis
[8] = target: T2, Bromodomain-containing protein 3 (Homo sapiens, UniProt Q15059); assay: Binding affinity to His6-tagged human BRD3 bromodomain-2 (306 to 416 residues) expressed in Escherichia coli BL21 (DE3) assessed as dissociation constant by ITC analysis
Target sequence in this assay (Q15059 whole entry, the tested form may be a part): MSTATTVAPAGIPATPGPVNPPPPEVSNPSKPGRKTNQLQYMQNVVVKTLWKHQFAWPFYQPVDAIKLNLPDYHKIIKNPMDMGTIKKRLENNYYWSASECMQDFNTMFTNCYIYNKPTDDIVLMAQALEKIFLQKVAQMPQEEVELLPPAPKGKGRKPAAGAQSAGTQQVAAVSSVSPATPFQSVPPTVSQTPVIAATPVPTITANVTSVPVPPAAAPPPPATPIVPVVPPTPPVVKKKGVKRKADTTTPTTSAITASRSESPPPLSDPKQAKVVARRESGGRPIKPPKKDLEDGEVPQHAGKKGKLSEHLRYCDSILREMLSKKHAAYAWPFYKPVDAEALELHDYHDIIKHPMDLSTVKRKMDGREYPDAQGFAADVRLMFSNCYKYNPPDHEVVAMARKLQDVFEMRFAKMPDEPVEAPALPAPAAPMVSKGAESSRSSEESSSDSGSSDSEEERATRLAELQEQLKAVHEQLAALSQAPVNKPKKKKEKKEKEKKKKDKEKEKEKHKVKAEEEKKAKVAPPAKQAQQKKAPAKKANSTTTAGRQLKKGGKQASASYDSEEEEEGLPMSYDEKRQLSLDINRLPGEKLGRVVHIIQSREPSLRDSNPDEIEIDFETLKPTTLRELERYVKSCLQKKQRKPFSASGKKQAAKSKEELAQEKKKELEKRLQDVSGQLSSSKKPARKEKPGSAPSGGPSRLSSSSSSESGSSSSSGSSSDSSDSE

[9] = Metabolic stability in human liver microsomes assessed as parent compound remaining at 1 uM incubated for 45 mins in presence of NADPH by LC-MS/MS analysis; assay type: ADME, Microsome; details: read-out: Stability
[10] = Half life in human liver microsomes at 1 uM incubated for 45 mins in presence of NADPH by LC-MS/MS analysis; assay type: ADME, Microsome
[11] = Intrinsic clearance in rat liver microsomes at 1 uM incubated for 45 mins in presence of NADPH by LC-MS/MS analysis; assay type: ADME, Microsome; details: read-out: CLH
[12] = Hepatic clearance in human liver microsomes at 1 uM incubated for 45 mins in presence of NADPH by LC-MS/MS analysis; assay type: ADME, Microsome; details: read-out: CLH
[13] = Hepatic clearance in rat liver microsomes at 1 uM incubated for 45 mins in presence of NADPH by LC-MS/MS analysis; assay type: ADME, Microsome
[14] = Hepatic extraction ratio in human liver microsomes at 1 uM incubated for 45 mins in presence of NADPH by LC-MS/MS analysis; assay type: ADME, Microsome; details: read-out: ERH
[15] = Apparent permeability across apical to basolateral side in human Caco-2 cells at 10 uM measured after 2 hrs by LC-MS/MS analysis; assay type: ADME, cell-based
[16] = Apparent permeability across apical to basolateral side in human Caco-2 cells assessed as drug recovery at 10 uM measured after 2 hrs by LC-MS/MS analysis; assay type: ADME, cell-based; details: read-out: Drug recovery
[17] = Apparent permeability across basolateral to apical side in human Caco-2 cells assessed as drug recovery at 10 uM measured after 2 hrs by LC-MS/MS analysis; assay type: ADME, cell-based; details: read-out: Drug recovery
LNCaP = assay: Antiproliferative activity against human LNCaP cells assessed as cell growth inhibition by Celltiter-Glo assay; assay type: functional, cell-based
CWR22R [18] = assay: Antiproliferative activity against human 22Rv1 cells assessed as cell growth inhibition by Celltiter-Glo assay; assay type: functional, cell-based
CWR22R [19] = assay: Antimigratory activity against human 22Rv1 cells assessed as reduction in cell migration at 5 uM incubated for 48 hrs by bright-field microscopy based wound healing assay relative to control; assay type: functional; set-up: scale not given: the % may be the effect or the level left
[20] = Aqueous solubility of compound in PBS buffer at pH 7.2 measured after 24 hrs by HPLC analysis; assay type: physicochemical
LNCaP C4-2B [21] = assay: Induction of apoptosis in human LNCaP C4-2B cells assessed as increase in apoptotic cells at 10 uM measured after 48 hrs by Annexin V-FITC and propidium iodide staining based flow cytometry (Rvb= 1%); assay type: functional
LNCaP C4-2B [22] = assay: Induction of apoptosis in human LNCaP C4-2B cells assessed as increase in apoptotic cells at 20 uM measured after 48 hrs by Annexin V-FITC and propidium iodide staining based flow cytometry (Rvb= 1%); assay type: functional
CWR22R [23] = assay: Suppression of full length Androgen receptor gene expression in human 22Rv1 cells incubated for 48 hrs by SYBR green dye-based qRT-PCR analysis; assay type: functional, cell-based; details: dose 0-20 µM, DDE = dose-dependent effect
CWR22R [24] = assay: Suppression of c-Myc protein expression in human 22Rv1 cells at 5 uM incubated for 48 hrs by Western blot analysis; assay type: functional, cell-based
CWR22R [25] = assay: Suppression of Androgen receptor target-gene expression in human 22Rv1 cells at 5 uM incubated for 48 hrs by SYBR green dye-based qRT-PCR analysis; assay type: functional, cell-based
CREB-binding protein [26] = target: T1, CREB-binding protein; details: dose 200.0 µM, time 30.0 min
Target sequence in this assay (Q92793 2-2442 limits assumed): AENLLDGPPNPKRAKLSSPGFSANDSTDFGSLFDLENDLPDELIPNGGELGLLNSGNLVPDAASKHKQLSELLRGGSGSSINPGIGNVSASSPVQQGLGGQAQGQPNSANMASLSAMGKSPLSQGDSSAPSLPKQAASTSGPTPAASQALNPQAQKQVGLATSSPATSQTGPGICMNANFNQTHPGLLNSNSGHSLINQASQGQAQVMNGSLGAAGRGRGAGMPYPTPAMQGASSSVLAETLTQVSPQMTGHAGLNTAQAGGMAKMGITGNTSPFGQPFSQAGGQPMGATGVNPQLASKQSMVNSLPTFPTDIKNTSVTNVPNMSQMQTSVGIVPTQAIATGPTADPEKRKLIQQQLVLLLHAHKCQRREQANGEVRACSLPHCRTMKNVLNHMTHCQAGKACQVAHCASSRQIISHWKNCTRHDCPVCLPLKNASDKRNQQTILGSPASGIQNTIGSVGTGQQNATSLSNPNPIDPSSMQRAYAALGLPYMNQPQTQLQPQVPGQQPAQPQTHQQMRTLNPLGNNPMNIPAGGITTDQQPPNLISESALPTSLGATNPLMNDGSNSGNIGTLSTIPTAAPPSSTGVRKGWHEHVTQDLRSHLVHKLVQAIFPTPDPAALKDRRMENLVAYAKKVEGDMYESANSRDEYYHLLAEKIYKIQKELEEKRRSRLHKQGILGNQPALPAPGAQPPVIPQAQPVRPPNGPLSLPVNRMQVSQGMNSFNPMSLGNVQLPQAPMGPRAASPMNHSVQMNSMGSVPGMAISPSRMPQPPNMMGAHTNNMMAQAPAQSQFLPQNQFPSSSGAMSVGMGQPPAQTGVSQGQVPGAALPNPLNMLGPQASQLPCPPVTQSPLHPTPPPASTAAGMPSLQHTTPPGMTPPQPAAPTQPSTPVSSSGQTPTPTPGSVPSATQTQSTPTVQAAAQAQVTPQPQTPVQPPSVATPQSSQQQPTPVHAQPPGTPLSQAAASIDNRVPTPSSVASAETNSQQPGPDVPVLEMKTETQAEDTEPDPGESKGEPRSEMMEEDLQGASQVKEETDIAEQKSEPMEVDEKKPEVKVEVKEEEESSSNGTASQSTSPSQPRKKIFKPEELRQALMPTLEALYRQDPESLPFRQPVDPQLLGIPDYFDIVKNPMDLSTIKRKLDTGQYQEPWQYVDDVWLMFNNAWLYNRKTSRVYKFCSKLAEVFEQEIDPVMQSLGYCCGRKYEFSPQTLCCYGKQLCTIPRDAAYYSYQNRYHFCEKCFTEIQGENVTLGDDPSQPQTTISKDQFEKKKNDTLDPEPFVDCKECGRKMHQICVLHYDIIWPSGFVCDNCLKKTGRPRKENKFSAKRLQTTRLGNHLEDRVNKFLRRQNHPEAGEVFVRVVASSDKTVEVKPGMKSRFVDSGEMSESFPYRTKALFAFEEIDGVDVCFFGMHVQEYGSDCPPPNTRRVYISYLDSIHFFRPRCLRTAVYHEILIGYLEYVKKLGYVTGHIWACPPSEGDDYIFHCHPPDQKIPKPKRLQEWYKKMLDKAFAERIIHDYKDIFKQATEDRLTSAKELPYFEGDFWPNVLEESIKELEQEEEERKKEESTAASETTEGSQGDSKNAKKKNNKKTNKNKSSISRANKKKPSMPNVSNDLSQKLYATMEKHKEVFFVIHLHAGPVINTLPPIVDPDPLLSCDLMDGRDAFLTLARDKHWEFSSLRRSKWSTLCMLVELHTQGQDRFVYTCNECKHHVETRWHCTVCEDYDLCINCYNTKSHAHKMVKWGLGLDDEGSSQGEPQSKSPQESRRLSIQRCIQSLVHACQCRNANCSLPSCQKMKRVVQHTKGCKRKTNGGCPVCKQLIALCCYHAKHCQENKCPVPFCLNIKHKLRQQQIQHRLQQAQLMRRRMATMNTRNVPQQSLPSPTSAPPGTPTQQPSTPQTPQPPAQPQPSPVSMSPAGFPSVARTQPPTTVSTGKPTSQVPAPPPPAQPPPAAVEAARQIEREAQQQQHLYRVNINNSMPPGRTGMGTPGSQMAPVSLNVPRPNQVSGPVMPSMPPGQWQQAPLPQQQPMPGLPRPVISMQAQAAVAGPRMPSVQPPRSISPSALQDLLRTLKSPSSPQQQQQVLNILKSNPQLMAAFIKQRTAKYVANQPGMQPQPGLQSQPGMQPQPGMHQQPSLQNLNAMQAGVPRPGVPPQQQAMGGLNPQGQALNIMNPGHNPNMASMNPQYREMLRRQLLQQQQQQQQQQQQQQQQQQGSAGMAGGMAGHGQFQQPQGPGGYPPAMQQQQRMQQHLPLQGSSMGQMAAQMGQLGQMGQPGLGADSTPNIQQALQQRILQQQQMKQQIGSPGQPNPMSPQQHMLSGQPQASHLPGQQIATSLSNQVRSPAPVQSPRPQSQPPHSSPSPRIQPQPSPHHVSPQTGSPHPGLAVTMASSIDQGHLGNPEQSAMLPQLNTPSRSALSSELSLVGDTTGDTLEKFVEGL

[27] = target: PH-interacting protein (Homo sapiens) (UniProt Q8WWQ0); details: dose 200.0 µM, time 30.0 min
[28] = target: Histone acetyltransferase KAT2B (Homo sapiens) (UniProt Q92831); details: dose 200.0 µM, time 30.0 min
[29] = target: Bromodomain-containing protein 4 (Homo sapiens, UniProt O60885); details: dose 200.0 µM, time 30.0 min
[30] = target: T2, Bromodomain-containing protein 3; details: dose 200.0 µM, time 30.0 min
Target sequence in this assay (Q15059 2-726 limits assumed): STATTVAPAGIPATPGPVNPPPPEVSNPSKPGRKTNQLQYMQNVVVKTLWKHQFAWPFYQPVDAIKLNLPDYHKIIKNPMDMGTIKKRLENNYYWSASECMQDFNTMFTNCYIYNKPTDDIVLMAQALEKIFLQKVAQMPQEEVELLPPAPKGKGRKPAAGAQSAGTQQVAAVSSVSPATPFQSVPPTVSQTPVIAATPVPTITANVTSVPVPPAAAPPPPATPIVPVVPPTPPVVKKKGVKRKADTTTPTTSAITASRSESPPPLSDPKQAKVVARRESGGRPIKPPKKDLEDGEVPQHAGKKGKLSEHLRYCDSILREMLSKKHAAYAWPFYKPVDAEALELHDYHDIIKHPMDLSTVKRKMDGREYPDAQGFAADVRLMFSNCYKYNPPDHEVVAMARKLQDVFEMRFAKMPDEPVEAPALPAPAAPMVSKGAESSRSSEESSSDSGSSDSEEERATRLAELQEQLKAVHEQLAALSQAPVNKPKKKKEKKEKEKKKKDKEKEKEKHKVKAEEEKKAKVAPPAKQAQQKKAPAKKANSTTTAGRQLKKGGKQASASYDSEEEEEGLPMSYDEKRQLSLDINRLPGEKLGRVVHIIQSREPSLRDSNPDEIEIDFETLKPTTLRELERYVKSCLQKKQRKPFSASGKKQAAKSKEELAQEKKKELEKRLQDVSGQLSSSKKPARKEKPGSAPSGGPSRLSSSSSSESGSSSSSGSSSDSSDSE

[31] = target: T3, Bromodomain testis-specific protein (Homo sapiens, UniProt Q58F21); details: dose 200.0 µM, time 30.0 min
[32] = target: T3, Bromodomain testis-specific protein; details: dose 200.0 µM, time 30.0 min; remark: listed apart in the source
in vitro = details: rat, liver microsomes
Description: Hepatic extraction ratio in rat liver microsomes at 1 uM incubated for 45 mins in presence of NADPH by LC-MS/MS analysis

Chain of Bromodomain-containing protein 2 (P25440 whole entry, the tested form may be a part): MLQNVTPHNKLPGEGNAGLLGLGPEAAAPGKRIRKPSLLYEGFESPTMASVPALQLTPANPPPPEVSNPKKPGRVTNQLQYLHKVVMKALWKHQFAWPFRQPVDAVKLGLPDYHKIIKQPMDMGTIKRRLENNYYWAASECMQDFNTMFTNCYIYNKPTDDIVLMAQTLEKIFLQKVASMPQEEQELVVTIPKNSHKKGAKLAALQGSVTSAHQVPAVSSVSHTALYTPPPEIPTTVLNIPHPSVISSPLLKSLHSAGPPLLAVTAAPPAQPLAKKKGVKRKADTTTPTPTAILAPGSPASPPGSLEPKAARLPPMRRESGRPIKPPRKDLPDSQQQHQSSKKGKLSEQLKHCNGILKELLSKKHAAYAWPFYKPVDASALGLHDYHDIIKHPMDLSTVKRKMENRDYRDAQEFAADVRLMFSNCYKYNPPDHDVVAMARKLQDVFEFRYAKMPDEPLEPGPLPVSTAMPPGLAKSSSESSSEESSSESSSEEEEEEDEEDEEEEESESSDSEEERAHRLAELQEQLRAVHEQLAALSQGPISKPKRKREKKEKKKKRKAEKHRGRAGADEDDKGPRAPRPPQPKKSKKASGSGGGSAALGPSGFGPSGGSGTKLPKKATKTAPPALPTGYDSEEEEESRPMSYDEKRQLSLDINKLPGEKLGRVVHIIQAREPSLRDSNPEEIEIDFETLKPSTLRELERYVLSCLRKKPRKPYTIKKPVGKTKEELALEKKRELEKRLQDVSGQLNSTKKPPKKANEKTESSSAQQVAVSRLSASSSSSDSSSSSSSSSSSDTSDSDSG

Which IC50 (CREB-binding protein [1]) does the source give for `COc1ccn2c(C(C)=O)cc(C(=O)Nc3cc(C(C)O)cc(-c4cnn(C5CC5)c4)c3F)c2c1` (centres undefined) here?
Its IC50 is 0.00421 µM.

And the Cmax [2]?
Its Cmax is 1.57 µg/mL.

And the CL [3]?
The CL was 0.14 L/h/kg.

What about the half-life [4] of the same compound?
Its half-life is 99.6 min.

What about the half-life [5] of the same compound?
The half-life was 36.6 min.

And the bioavailability [6]?
The bioavailability was 25.9%.

What about the Kd [7] of the same compound?
Its Kd is 0.84 µM.

What about the Kd [8] of the same compound?
The Kd was 1.5 µM.

What about the remaining at 0.75 h, 1 µM [9] of the same compound?
The remaining at 0.75 h, 1 µM was 23.1%.

What about the half-life at 1 µM [10] of the same compound?
The half-life at 1 µM was 21.3 min.

What about the CLint scaled at 1 µM [11] of the same compound?
The CLint scaled at 1 µM was 3.24 L/h/kg.

What about the CLint scaled at 1 µM [12] of the same compound?
The CLint scaled at 1 µM was 0.991 L/h/kg.

What about the CLhep predicted at 1 µM [13] of the same compound?
The CLhep predicted at 1 µM was 1.64 L/h/kg.

What about the hepatic extraction ratio at 0.75 h, 1 µM [14] of the same compound?
The hepatic extraction ratio at 0.75 h, 1 µM was 0.798.

And the Papp A→B at 2 h, 10 µM [15]?
The Papp A→B at 2 h, 10 µM was 66.8 nm/s.

What about the recovery at 2 h, 10 µM [16] of the same compound?
The recovery at 2 h, 10 µM was 41.2%.

What about the recovery at 2 h, 10 µM [17] of the same compound?
Its recovery at 2 h, 10 µM is 37.3%.

And the IC50 (LNCaP)?
Its IC50 is 0.59 µM.

What about the IC50 (CWR22R [18]) of the same compound?
Its IC50 is 2.04 µM.

And the Activity (CWR22R [19])?
The Activity was 60%.

What about the solubility at 24 h [20] of the same compound?
Its solubility at 24 h is 0.02 mg/mL (≈ 42 µM).

What about the Activity (LNCaP C4-2B [21]) of the same compound?
Its Activity is 10.39%.

And the Activity (LNCaP C4-2B [22])?
Its Activity is 13.08%.

What about the Activity (CWR22R [23]) of the same compound?
Its Activity is “Dde”.

And the Activity (CWR22R [24])?
Its Activity is “Active”.

And the Activity (CWR22R [25])?
Its Activity is “Active”.

What about the ΔTm (CREB-binding protein [26]) of the same compound?
Its ΔTm is 11.5 °C.

And the ΔTm [27]?
The ΔTm was 0 °C.

And the ΔTm [28]?
The ΔTm was -0.6 °C.

And the ΔTm [29]?
The ΔTm was -1.5 °C.

And the ΔTm [30]?
Its ΔTm is -2.5 °C.

And the ΔTm [31]?
The ΔTm was -3.3 °C.

What about the ΔTm [32] of the same compound?
Its ΔTm is -3 °C.

What about the hepatic extraction ratio at 0.75 h, 1 µM (in vitro) of the same compound?
Its hepatic extraction ratio at 0.75 h, 1 µM is 0.495.
